Conditions: 343.14 K, Liquid, Vibrating tube method

CCCC(=O)OCC(COC(=O)CCC)(COC(=O)CCC)COC(=O)CCC [pentaerythritol tetrabutyrate]
Conditions | mass density [kg/m3]
773.4 kPa | 1008.6
794.9 kPa | 1008.7
818 kPa | 1008.6
837.8 kPa | 1008.5
863.2 kPa | 1008.6
890.1 kPa | 1008.8
913.7 kPa | 1008.7
943.4 kPa | 1008.7
969.3 kPa | 1008.9
1002.1 kPa | 1008.8
1036.5 kPa | 1008.8
1072.5 kPa | 1008.9
1104.2 kPa | 1008.8
1144 kPa | 1008.9
1187.1 kPa | 1008.9
1225.3 kPa | 1009
1274.2 kPa | 1009
1324.7 kPa | 1009
1369.5 kPa | 1009.1
1428.4 kPa | 1009.2
1489.8 kPa | 1009.2
1539.7 kPa | 1009.3
1615.7 kPa | 1009.3
1656.6 kPa | 1009.4
1676.8 kPa | 1009.3
1697.6 kPa | 1009.4
1715.3 kPa | 1009.4
1736.3 kPa | 1009.5
1758.3 kPa | 1009.4
1780.4 kPa | 1009.4
1799.6 kPa | 1009.4
1823.1 kPa | 1009.5
1842.9 kPa | 1009.5
1866.6 kPa | 1009.7
1891.8 kPa | 1009.5
1912.6 kPa | 1009.6
1937.9 kPa | 1009.6
1964.7 kPa | 1009.5
1987.2 kPa | 1009.6
2014.1 kPa | 1009.7
2042.2 kPa | 1009.7
2065.8 kPa | 1009.6
2094.8 kPa | 1009.6
2125.5 kPa | 1009.8
2150.1 kPa | 1009.9
2180.8 kPa | 1009.8
2213.3 kPa | 1009.7
2247.3 kPa | 1009.8
2275.2 kPa | 1009.8
2308 kPa | 1009.8
2336.8 kPa | 1009.9
2371.5 kPa | 1009.8
2407 kPa | 1009.9
2443.3 kPa | 1009.9
2474.7 kPa | 1010
2513.3 kPa | 1010.1
2553.2 kPa | 1010
2587.6 kPa | 1010.1
2629.4 kPa | 1010
2672.7 kPa | 1009.9
2711.2 kPa | 1010.3
2794.1 kPa | 1010.3
2887.4 kPa | 1010.4
2936.4 kPa | 1010.4
2979.8 kPa | 1010.4
3032.3 kPa | 1010.4
3076.5 kPa | 1010.5
3130.6 kPa | 1010.4
3186.2 kPa | 1010.6
3242.9 kPa | 1010.6
3291.4 kPa | 1010.7
3352.4 kPa | 1010.6
3413.6 kPa | 1010.6
3465.5 kPa | 1010.7
3526.7 kPa | 1010.8
3578 kPa | 1010.8
3651.6 kPa | 1011
3705.3 kPa | 1011
3789.3 kPa | 1010.9
3822.9 kPa | 1011.1
3911.1 kPa | 1011.1
3990.2 kPa | 1011.2
4072.1 kPa | 1011.2
4144 kPa | 1011.3
4183.8 kPa | 1011.4
4214.1 kPa | 1011.4
4417.6 kPa | 1011.4
4449.7 kPa | 1011.6
4486.8 kPa | 1011.6
4507.9 kPa | 1011.5
4727.5 kPa | 1011.7
5057.9 kPa | 1012.1
5072.9 kPa | 1012.3
5076 kPa | 1012
5110.6 kPa | 1012.1
5117 kPa | 1012.1
5126.9 kPa | 1012.1
5150.9 kPa | 1012.2
5159.4 kPa | 1012.3
5175.5 kPa | 1012.1
5176 kPa | 1012.2
5178.4 kPa | 1012.2
5180.5 kPa | 1012.1
5180.7 kPa | 1012
5182.4 kPa | 1012.2
5183.8 kPa | 1012.3
5184.3 kPa | 1012.1
5185 kPa | 1012.1
5185.2 kPa | 1012.1
5185.5 kPa | 1012.2
5186.2 kPa | 1012.2
5187.3 kPa | 1012.1
5188.5 kPa | 1012.1
5189 kPa | 1012.2
5189.9 kPa | 1012.3
5190.4 kPa | 1012.1
5205.3 kPa | 1012.2
5219.3 kPa | 1012.2
5228.9 kPa | 1012.3
5236 kPa | 1012.2
5238.3 kPa | 1012.3
5248 kPa | 1012.2
5250.1 kPa | 1012.2
5252.5 kPa | 1012.2
5253.9 kPa | 1012.3
5256.1 kPa | 1012.2
5266.1 kPa | 1012.1
5282.2 kPa | 1012.2
5294.5 kPa | 1012.3
5310.3 kPa | 1012.2
5338.3 kPa | 1012.2
5338.4 kPa | 1012.1
5368.9 kPa | 1012.1
5399.8 kPa | 1012.4
5401.2 kPa | 1012.4
5439.1 kPa | 1012.3
5471.1 kPa | 1012.4
5509.5 kPa | 1012.4
5540.4 kPa | 1012.4
5575.9 kPa | 1012.5
5603.9 kPa | 1012.4
5635.2 kPa | 1012.6
5666.5 kPa | 1012.5
5693.6 kPa | 1012.5
5727 kPa | 1012.6
5754.8 kPa | 1012.6
5789.8 kPa | 1012.7
5820.2 kPa | 1012.7
5848.2 kPa | 1012.7
5882.8 kPa | 1012.5
5917.3 kPa | 1012.8
5983 kPa | 1012.8
6117.5 kPa | 1013
6146.4 kPa | 1012.8
6179.9 kPa | 1012.9
6208.2 kPa | 1012.9
6243.3 kPa | 1013
6271.8 kPa | 1012.9
6306.4 kPa | 1012.9
6341.3 kPa | 1013
6370.3 kPa | 1013.1
6406.6 kPa | 1013
6437.2 kPa | 1013.1
6473.6 kPa | 1013.1
6511 kPa | 1013.2
6542.8 kPa | 1013.3
6581.3 kPa | 1013.2
6611.2 kPa | 1013.2
6645.7 kPa | 1013.4
6673.9 kPa | 1013.3
6707.9 kPa | 1013.3
6736.2 kPa | 1013.4
6771.5 kPa | 1013.3
6800.7 kPa | 1013.3
6836.3 kPa | 1013.4
6866 kPa | 1013.4
6902.9 kPa | 1013.4
6934 kPa | 1013.6
6971 kPa | 1013.5
7008.4 kPa | 1013.5
7168 kPa | 1013.6
7200.4 kPa | 1013.7
7227.9 kPa | 1013.7
7261.2 kPa | 1013.7
7289.3 kPa | 1013.8
7323.9 kPa | 1013.9
7352.7 kPa | 1013.8
7387.4 kPa | 1014
7416.1 kPa | 1013.9
7450.6 kPa | 1013.8
7480.1 kPa | 1014
7515.7 kPa | 1014
7551.4 kPa | 1013.9
7581.6 kPa | 1013.9
7618.5 kPa | 1014
7649.6 kPa | 1014
7686.9 kPa | 1014
7718.3 kPa | 1014.2
7756.1 kPa | 1014.1
7788.3 kPa | 1014.2
7827 kPa | 1014.2
7866.3 kPa | 1014.2
7899.3 kPa | 1014.2
7932.8 kPa | 1014.4
7972.8 kPa | 1014.4
8013.9 kPa | 1014.3
8090.3 kPa | 1014.4
8125.6 kPa | 1014.5
8169.1 kPa | 1014.4
8205.4 kPa | 1014.5
8246 kPa | 1014.4
8283.5 kPa | 1014.5
8312 kPa | 1014.5
8346.8 kPa | 1014.6
8382.7 kPa | 1014.7
8723.4 kPa | 1014.9
8760.5 kPa | 1014.7
8798.7 kPa | 1014.8
8838.7 kPa | 1014.9
8871 kPa | 1015
8910.3 kPa | 1015.2
8943.4 kPa | 1015
9220.4 kPa | 1015.3
9262.8 kPa | 1015.3
9305.7 kPa | 1015.3
9342.7 kPa | 1015.3
9387.2 kPa | 1015.4
9430.1 kPa | 1015.4
9462.8 kPa | 1015.5
9499 kPa | 1015.3
9535.2 kPa | 1015.5
9572.1 kPa | 1015.6
9751.4 kPa | 1015.7
9783.6 kPa | 1015.7
10212 kPa | 1016
10254 kPa | 1016.1
10297 kPa | 1016.1
10334 kPa | 1015.9
10376 kPa | 1016
10420 kPa | 1016.1
10456 kPa | 1016.3
10500 kPa | 1016.3
10816 kPa | 1016.5
10866 kPa | 1016.5
10904 kPa | 1016.5
11274 kPa | 1016.8
11884 kPa | 1017.2
11921 kPa | 1017.2
11965 kPa | 1017.2
12003 kPa | 1017.3
12047 kPa | 1017.3
12093 kPa | 1017.5
12139 kPa | 1017.3
12178 kPa | 1017.4
12224 kPa | 1017.5
12271 kPa | 1017.5
12318 kPa | 1017.5
14882 kPa | 1019.5
14925 kPa | 1019.6
14968 kPa | 1019.5
15004 kPa | 1019.4
15048 kPa | 1019.5
15500 kPa | 1019.8
15576 kPa | 1019.8
17833 kPa | 1021.6
19181 kPa | 1022.6
19261 kPa | 1022.5
22923 kPa | 1025
23811 kPa | 1025.7
23859 kPa | 1025.7
23900 kPa | 1025.7
23948 kPa | 1025.8
23996 kPa | 1025.8
24046 kPa | 1025.8
25712 kPa | 1027
25761 kPa | 1026.9
25802 kPa | 1027
25851 kPa | 1027.1
25900 kPa | 1027.1
25940 kPa | 1027.1
25989 kPa | 1027.1
26037 kPa | 1027.1
26087 kPa | 1027.3
26128 kPa | 1027.2
26178 kPa | 1027.4
26627 kPa | 1027.5
26673 kPa | 1027.6
26708 kPa | 1027.6
26751 kPa | 1027.6
26793 kPa | 1027.7
26835 kPa | 1027.8
26872 kPa | 1027.7
26914 kPa | 1027.8
